# Laboratory results: ChEMBL document CHEMBL1145401, “Design and synthesis of classical and nonclassical 6-arylthio-2,4-diamino-5-ethylpyrrolo[2,3-d]pyrimidines as antifolates” (J Med Chem, 2007)
# pIC50: −log10 of the molar value.
# Legend:
# Dihydrofolate reductase [1] = molecular target: T1, Dihydrofolate reductase (Mycobacterium avium, UniProt O30463)
# T1 sequence (O30463 whole entry): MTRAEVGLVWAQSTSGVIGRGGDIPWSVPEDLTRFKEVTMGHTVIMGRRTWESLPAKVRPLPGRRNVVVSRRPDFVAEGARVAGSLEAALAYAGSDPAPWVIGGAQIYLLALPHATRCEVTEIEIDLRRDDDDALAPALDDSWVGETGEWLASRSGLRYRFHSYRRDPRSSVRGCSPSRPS
# Description: Inhibition of Mycobacterium avium DHFR
# Dihydrofolate reductase [2] = molecular target: T2, Dihydrofolate reductase (Homo sapiens, UniProt P00374)
# Dihydrofolate reductase [3] = molecular target: T3, Dihydrofolate reductase (Rattus norvegicus, UniProt Q920D2)
# T3 sequence (Q920D2 whole entry): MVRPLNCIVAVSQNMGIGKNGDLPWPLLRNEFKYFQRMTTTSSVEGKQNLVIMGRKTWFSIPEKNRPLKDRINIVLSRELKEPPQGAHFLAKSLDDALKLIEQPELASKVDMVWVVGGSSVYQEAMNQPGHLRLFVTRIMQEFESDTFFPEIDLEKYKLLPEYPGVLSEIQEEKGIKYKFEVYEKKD
# Description: Inhibition of rat liver DHFR
# Dihydrofolate reductase [4] = molecular target: T4, Dihydrofolate reductase (Pneumocystis carinii, UniProt P16184)
# T4 sequence (P16184 whole entry): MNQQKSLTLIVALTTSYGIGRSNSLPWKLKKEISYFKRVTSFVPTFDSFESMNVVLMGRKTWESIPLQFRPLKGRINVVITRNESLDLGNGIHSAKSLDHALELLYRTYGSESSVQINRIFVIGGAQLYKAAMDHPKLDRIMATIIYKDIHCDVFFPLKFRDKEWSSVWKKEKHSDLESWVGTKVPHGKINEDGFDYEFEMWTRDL
# Description: Inhibition of Pneumocystis carinii DHFR
# [5] = molecular target: T5, Bifunctional dihydrofolate reductase-thymidylate synthase (Toxoplasma gondii, UniProt Q07422)
# T5 sequence (Q07422 whole entry): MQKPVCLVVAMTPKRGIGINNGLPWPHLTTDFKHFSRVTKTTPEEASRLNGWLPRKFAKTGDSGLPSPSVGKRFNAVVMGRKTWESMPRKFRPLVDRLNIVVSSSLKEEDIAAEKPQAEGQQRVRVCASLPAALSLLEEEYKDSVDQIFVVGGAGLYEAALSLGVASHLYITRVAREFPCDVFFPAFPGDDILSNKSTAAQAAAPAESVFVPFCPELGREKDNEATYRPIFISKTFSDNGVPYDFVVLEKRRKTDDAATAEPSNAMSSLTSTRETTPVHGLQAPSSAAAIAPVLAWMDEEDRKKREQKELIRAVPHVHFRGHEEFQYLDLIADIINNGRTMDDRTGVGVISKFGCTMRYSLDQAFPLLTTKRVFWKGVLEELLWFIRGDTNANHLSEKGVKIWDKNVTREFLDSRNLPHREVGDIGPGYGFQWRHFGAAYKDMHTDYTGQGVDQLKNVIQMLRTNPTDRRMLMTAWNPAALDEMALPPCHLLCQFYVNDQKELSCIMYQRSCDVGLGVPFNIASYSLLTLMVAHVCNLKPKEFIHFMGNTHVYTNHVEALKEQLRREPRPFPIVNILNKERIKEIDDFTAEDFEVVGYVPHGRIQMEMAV
# Description: Inhibition of Toxoplasma gondii DHFR
# [6] = Selectivity ratio of IC50 for rat liver DHFR to IC50 for Pneumocystis carinii DHFR
# [7] = Inhibition of Escherichia coli DHFR
# [8] = Selectivity ratio of IC50 for human DHFR to IC50 for Escherichia coli DHFR
# [9] = Selectivity ratio of IC50 for rat liver DHFR to IC50 for Mycobacterium avium DHFR
# Dihydrofolate reductase [10] = molecular target: T2, Dihydrofolate reductase; test: Inhibition of human DHFR relative to control; settings: concentration not given here
# [11] = molecular target: Dihydrofolate reductase (Pneumocystis carinii) (UniProt P16184); settings: 20 uM
# Description: Inhibition of Pneumocystis carinii DHFR at 20 uM
# SW-620 = test: Cytotoxicity against SW620 cells; type: functional; settings: Homo sapiens
# K562 = test: Cytotoxicity against K562 cells; type: functional; settings: Homo sapiens
# MOLT-4 = test: Cytotoxicity against MOLT4 cells; type: functional; settings: Homo sapiens
# PC-3 = test: Cytotoxicity against PC3 cells; type: functional; settings: Homo sapiens
# HT-29 = test: Cytotoxicity against HT29 cells; type: functional; settings: Homo sapiens
# LOX IMVI = test: Cytotoxicity against LOX IMVI cells; type: functional; settings: Homo sapiens
# SR = test: Cytotoxicity against SR cells; type: functional; settings: Homo sapiens
# RPMI-8226 = test: Cytotoxicity against RPMI8226 cells; type: functional; settings: Homo sapiens
# NCI-H460 = test: Cytotoxicity against NCI-H460 cells; type: functional; settings: Homo sapiens
# CCRF-CEM [12] = test: Cytotoxicity against CCRF-CEM cells; type: functional; settings: Homo sapiens
# U-251 = test: Cytotoxicity against U251 cells; type: functional; settings: Homo sapiens
# CCRF-CEM [13] = test: Effect on growth of human CCRF-CEM cells at 40 nM in presence of 10 uM deoxycytidine relative to control; type: functional
# CCRF-CEM [14] = test: Effect on growth of human CCRF-CEM cells at 40 nM in presence of 10 uM deoxycytidine, 10 uM hypoxanthine relative to control; type: functional
# CCRF-CEM [15] = test: Effect on growth of human CCRF-CEM cells at 40 nM in presence of 10 uM deoxycytidine, 5 uM thymidine and 10 uM hypoxanthine relative to control; type: functional
# CCRF-CEM [16] = test: Effect on growth of human CCRF-CEM cells at 40 nM in presence of 10 uM deoxycytidine, 5 uM thymidine relative to control; type: functional
SMILES,pIC50 (Dihydrofolate reductase [1]),pIC50 (Dihydrofolate reductase [2]),pIC50 (Dihydrofolate reductase [3]),pIC50 (Dihydrofolate reductase [4]),pIC50 [5],Ratio IC50 [6],Ratio IC50 [9],other results
CCc1c(Sc2cccc3cccnc23)[nH]c2nc(N)nc(N)c12,6.96,5.85,5.45,5.02,–,–,–,–
CCc1c(Sc2ccccc2)[nH]c2nc(N)nc(N)c12,–,4.74,–,–,6.74,–,–,–
CCc1c(Sc2ccc([N+](=O)[O-])cc2)[nH]c2nc(N)nc(N)c12,6.43,5.24,5.49,5.06,6.49,0.4,8.6,pIC50 [7]: 7.05; Ratio IC50 [8]: 64.4
CCc1c(Sc2c(Cl)cccc2Cl)[nH]c2nc(N)nc(N)c12,4.92,< 4.55,5.40,4.69,5.42,0.2,0.33,inhibition (Dihydrofolate reductase [10]): 30%
COc1ccc(Sc2[nH]c3nc(N)nc(N)c3c2C)cc1,6.16,–,–,–,–,–,–,–
CCc1c(Sc2cccc(Cl)c2)[nH]c2nc(N)nc(N)c12,6.38,< 4.51,5.20,5.40,6.30,1.6,15.1,pIC50 [7]: 6.80; Ratio IC50 [8]: > 194; inhibition (Dihydrofolate reductase [10]): 30%
Cc1c(Sc2ccc(Cl)c(Cl)c2)[nH]c2nc(N)nc(N)c12,4.72,–,3.96,–,4.70,9.1,5.8,inhibition [11]: 14%
Cc1nc(N)c2c(C)c(Sc3ccc(C(=O)N[C@@H](CCC(=O)O)C(=O)O)cc3)[nH]c2n1,–,–,–,–,–,–,–,GI50 (SW-620): 0.12 µM; GI50 (K562): 0.027 µM; GI50 (MOLT-4): < 0.01 µM; GI50 (PC-3): 0.44 µM; GI50 (HT-29): 0.16 µM; GI50 (LOX IMVI): 0.17 µM; GI50 (SR): > 0.1 µM; GI50 (RPMI-8226): < 0.01 µM; GI50 (NCI-H460): 0.63 µM; GI50 (CCRF-CEM [12]): 0.22 µM; GI50 (U-251): 0.82 µM
CCc1c(Sc2ccc3ccccc3c2)[nH]c2nc(N)nc(N)c12,5.19,5.22,5.06,4.86,5.29,–,–,–
CN(Cc1cnc2nc(N)nc(N)c2n1)c1ccc(C(=O)N[C@@H](CCC(=O)O)C(=O)O)cc1 [METHOTREXATE],–,–,–,–,–,–,–,Activity (CCRF-CEM [13]): 11%; Activity (CCRF-CEM [14]): 14%; Activity (CCRF-CEM [15]): 74%; Activity (CCRF-CEM [16]): 13%
